Measurements published in ChEMBL document CHEMBL1201862, “PubChem BioAssay data set” (2004).
Activity calls are given as the source filed them.

Key:
[1] = molecular target: T1, Heat shock factor protein 1 (Mus musculus, UniProt P38532); assay: inhibition of MG132-induced HSE-luciferase signal, confirmation, cell-based, NIH3T3, luminescence, dose retest (AID 2382); assay type: functional;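 also: NIH3T3 fibroblasts with HSF1-driven luciferase reporter stressed by proteasome inhibitor MG132; luminescence from HSF1-driven luciferase expression after 8 hours of MG132 stress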
T1 sequence (P38532 whole entry): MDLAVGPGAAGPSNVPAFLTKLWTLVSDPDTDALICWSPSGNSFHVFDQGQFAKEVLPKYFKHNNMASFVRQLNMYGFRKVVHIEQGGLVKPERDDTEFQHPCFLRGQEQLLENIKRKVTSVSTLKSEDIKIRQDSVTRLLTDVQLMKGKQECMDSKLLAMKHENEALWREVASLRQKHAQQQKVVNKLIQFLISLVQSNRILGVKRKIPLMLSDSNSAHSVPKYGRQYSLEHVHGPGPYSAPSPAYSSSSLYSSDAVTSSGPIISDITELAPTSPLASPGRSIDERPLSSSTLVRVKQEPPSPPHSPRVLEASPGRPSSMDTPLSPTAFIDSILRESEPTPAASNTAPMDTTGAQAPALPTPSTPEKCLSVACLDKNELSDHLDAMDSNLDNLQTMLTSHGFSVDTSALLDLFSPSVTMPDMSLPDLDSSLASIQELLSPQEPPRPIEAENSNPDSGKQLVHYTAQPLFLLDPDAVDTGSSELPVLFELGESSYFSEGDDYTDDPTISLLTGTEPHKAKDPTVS

[2] = molecular target: T2, Corticotropin-releasing factor receptor 2/Corticotropin-releasing factor-binding protein (Homo sapiens, UniProt P24387+Q13324); assay: activators of CRF receptor 2 with binding protein – uHTS hits, confirmation (AID 602473); assay type: functional; conditions: read-out: EC50_Mean
T2 sequence (Q13324 whole entry): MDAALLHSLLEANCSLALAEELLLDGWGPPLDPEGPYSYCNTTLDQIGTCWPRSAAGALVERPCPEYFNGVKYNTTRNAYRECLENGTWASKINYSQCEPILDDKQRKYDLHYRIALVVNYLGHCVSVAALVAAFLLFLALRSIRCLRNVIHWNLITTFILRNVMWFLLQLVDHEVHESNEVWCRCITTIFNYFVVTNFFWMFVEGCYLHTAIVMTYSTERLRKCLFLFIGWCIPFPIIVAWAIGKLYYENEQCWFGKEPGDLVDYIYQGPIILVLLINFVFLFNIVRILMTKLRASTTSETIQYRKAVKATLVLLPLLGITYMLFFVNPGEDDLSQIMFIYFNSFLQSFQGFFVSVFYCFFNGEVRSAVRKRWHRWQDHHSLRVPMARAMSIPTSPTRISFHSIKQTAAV
T2 sequence (P24387 whole entry): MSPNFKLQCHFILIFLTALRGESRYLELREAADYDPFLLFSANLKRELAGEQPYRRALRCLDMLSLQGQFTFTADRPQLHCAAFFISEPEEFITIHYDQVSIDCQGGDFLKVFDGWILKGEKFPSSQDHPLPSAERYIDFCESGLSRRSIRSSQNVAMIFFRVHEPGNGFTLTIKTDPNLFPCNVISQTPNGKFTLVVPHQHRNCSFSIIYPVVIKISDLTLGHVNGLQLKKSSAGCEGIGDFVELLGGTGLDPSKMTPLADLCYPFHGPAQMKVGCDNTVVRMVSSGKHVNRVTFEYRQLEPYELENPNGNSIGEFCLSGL

[3] = molecular target: T2, Corticotropin-releasing factor receptor 2/Corticotropin-releasing factor-binding protein; assay: Dose Response confirmation of uHTS hits for small molecule antagonists of the CRF-binding protein and CRF-R2 receptor complex.; assay type: functional; conditions: read-out: IC50_Mean
Cytochrome P450 2C19 = Cytochrome P450 2C19 (Homo sapiens, UniProt P33261); assay: Cytochrome panel assay with activity outcomes. Panel member name: p450-cyp2c19 Compounds with AC50 equal or less than 10 uM are considered active; assay type: functional; conditions: read-out: AC50
Sequence of Cytochrome P450 2C19 (P33261 whole entry): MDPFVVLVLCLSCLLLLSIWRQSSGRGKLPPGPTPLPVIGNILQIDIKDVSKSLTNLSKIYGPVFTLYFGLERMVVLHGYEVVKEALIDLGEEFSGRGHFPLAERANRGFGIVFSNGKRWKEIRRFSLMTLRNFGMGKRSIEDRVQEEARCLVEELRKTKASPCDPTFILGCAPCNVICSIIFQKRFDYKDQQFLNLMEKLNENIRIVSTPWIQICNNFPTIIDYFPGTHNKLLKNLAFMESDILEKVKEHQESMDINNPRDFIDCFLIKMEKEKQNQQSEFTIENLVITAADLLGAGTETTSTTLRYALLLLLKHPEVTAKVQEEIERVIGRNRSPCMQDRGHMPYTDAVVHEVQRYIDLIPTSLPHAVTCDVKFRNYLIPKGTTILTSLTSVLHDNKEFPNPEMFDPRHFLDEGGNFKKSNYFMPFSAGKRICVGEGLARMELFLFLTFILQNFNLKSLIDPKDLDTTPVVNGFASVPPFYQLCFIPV

Cytochrome P450 1A2 = molecular target: T3, Cytochrome P450 1A2 (Homo sapiens, UniProt P05177);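 also: PubChem cytochrome P450 panel assay, CYP1A2 panel member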
T3 sequence (P05177 whole entry): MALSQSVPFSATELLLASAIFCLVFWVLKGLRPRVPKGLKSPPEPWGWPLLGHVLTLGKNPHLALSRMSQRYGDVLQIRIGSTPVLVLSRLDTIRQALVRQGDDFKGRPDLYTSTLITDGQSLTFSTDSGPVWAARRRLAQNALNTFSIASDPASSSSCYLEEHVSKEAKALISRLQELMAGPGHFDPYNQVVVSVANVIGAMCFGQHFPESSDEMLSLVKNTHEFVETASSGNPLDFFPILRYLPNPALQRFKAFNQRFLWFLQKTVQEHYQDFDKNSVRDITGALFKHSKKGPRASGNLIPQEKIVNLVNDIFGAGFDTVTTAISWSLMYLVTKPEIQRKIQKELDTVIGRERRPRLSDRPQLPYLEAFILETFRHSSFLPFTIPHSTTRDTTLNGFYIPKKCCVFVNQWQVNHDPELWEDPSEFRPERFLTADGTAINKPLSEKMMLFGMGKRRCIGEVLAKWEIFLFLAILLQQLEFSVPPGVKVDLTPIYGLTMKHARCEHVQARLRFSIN

Cytochrome P450 3A4 = Cytochrome P450 3A4 (Homo sapiens, UniProt P08684);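 also: CYP3A4 tested as one member of a cytochrome P450 panel screen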
Sequence of Cytochrome P450 3A4 (P08684 whole entry): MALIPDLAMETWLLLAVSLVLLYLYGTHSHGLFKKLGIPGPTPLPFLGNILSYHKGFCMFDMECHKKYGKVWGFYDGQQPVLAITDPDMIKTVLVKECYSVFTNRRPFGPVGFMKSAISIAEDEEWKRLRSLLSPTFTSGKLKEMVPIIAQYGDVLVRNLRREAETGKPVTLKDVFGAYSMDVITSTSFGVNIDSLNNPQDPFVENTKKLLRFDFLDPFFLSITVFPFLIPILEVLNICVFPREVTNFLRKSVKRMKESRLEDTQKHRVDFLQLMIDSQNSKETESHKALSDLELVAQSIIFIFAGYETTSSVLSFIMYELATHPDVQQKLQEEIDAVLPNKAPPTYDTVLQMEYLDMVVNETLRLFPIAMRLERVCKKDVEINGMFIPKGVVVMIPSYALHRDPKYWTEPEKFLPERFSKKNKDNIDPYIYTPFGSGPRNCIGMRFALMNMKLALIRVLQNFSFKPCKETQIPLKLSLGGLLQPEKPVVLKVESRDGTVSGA

Cytochrome P450 2C9 = Cytochrome P450 2C9 (Homo sapiens, UniProt P11712)
Sequence of Cytochrome P450 2C9 (P11712 whole entry): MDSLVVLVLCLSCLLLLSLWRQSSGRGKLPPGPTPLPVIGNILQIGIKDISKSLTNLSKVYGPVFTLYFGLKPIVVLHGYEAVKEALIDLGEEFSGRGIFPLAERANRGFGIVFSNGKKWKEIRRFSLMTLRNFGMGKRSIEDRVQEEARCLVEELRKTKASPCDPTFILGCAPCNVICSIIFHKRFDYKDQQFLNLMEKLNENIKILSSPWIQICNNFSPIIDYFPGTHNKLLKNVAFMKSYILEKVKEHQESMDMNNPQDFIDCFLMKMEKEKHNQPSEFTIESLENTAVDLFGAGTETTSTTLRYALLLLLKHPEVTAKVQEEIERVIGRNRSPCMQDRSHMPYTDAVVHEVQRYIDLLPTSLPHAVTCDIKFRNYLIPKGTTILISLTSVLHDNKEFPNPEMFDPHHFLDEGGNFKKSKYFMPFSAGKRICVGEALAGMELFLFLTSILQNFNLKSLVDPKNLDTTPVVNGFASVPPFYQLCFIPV

Paired box protein Pax-8 = Paired box protein Pax-8 (Homo sapiens, UniProt Q06710); assay: inhibitors of PAX8-driven TPO luciferase reporter, dose response, RMG-I cells, cherry-pick (AID 687027); assay type: functional, cell-based;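 also: luciferase reporter driven by Pax8 target thyroperoxidase promoter measured by SteadyGlo luminescence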
Sequence of Paired box protein Pax-8 (Q06710 whole entry): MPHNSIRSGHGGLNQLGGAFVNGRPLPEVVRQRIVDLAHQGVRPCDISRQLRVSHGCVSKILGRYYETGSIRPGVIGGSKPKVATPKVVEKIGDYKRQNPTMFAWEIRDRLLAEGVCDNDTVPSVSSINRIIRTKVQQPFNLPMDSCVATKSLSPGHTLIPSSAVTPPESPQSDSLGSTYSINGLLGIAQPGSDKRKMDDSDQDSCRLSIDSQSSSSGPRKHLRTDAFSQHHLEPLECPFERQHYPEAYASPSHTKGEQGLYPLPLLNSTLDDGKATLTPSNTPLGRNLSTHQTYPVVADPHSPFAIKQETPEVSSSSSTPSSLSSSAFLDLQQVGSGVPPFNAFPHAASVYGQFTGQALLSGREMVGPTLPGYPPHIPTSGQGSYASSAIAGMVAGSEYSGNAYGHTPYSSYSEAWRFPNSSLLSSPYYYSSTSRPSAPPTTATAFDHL

H4 = assay: Luminescence Cell-Based Dose Response HTS to Identify Activators of 5'UTR Stem-Loop Driven Prion Protein mRNA Translation in H4 Neuroglioblastoma Cells. [Related pubchem assays: 1829 (Project Summary), 1814 (Primary HTS)]; assay type: functional; conditions: Homo sapiens
[4] = test system: Streptococcus sp. 'group A'; assay: growth inhibition of control SK(-) GAS strain, dose response, counter-screen for streptokinase expression inhibitor project, luminescence, kanamycin, BacTiterGlo, confirmation (AID 1900); assay type: functional, organism-based
Streptokinase A = molecular target: T4, Streptokinase A (Streptococcus pyogenes serotype M1, UniProt P10520); assay: S. pyogenes streptokinase expression inhibitors, potency, dose response, plasminogen activation absorbance, OD405 (AID 1914); assay type: functional, Streptococcus pyogenes M1 GAS;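 also: secreted streptokinase activity via plasminogen activation per viability signal from cell pellet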
T4 sequence (P10520 whole entry): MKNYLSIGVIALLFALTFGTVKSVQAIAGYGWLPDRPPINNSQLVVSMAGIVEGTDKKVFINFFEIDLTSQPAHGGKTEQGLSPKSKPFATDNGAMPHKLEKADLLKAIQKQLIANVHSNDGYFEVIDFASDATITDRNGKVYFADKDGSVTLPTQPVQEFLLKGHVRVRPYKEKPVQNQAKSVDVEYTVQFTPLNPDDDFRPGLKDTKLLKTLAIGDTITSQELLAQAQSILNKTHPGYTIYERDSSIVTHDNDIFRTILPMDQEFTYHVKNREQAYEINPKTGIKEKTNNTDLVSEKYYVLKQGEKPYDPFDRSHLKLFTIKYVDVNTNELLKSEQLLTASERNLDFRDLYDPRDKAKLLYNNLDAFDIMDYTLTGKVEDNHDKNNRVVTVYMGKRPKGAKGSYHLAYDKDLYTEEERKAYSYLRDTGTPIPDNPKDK

Streptococcus = assay: Group A Streptococcus viability loss, dose response, counter-screen for streptokinase expression inhibitor project, luminescence, BacTiterGlo (AID 1915); assay type: functional, organism-based;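 also: potency for reduction of bacterial viability or growth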
[5] = Luminescence Cell-Based Dose Retest to Confirm Inhibitors of Cancer Stem Cells. [Related pubchem assays (depositor defined):AID2717, AID2721]; assay type: functional; conditions: Homo sapiens

Cc1nc(NC(C)c2ccccc2)sc1C(=O)Nc1ccccc1 (stereo not drawn)
EC50 [1]: > 195 µM (not active)

Cc1ccc(CSCC(=O)N(C)CC(=O)Nc2ccc(C)cc2)cc1
EC50 [1]: > 195 µM (not active)

Cc1ccc(NC(=O)C2CCCN2C(=O)c2cccs2)cc1C (stereo not drawn)
EC50 [2]: > 53 µM (inactive) | IC50 [3]: > 47.1 µM (inactive)

CCC/C=C(\CCC)C(NS(=O)(=O)c1cccc2cccnc12)c1ccc(-c2ccccc2)cc1 (stereo not drawn)
AC50 (Cytochrome P450 2C19): 2.51 µM (inconclusive) | AC50 (Cytochrome P450 1A2): 0.794 µM (inconclusive)

Cc1nc2ccc(S(=O)(=O)NC(C(=O)NCc3cccs3)C(C)C)cc2s1 (stereo not drawn)
EC50 [1]: > 195 µM (not active)

Cc1cc([N+](=O)[O-])ccc1NCc1ccccc1[N+](=O)[O-]
EC50 [2]: > 53 µM (inactive) | IC50 [3]: > 47.1 µM (inactive)

O=C(CCC(=O)c1ccc(Br)cc1)Nc1cccnc1
EC50 [1]: > 195 µM (not active)

CN(C)c1ncc2nc(-c3cc(F)cc(F)c3)c(=O)n(-c3ccccc3)c2n1
AC50 (Cytochrome P450 1A2): 0.316 µM (inconclusive)

CCC(c1nnc(SCC(=O)Nc2c(F)cccc2F)n1Cc1ccccc1)N(C)C (stereo not drawn)
EC50 [2]: > 53 µM (inactive) | IC50 [3]: > 47.1 µM (inactive)

COc1ccc(C(=O)c2c[nH]cc2-c2ccccc2)cc1
EC50 [1]: > 195 µM (not active)

CCC(CC)c1nc(C#N)c(NCc2ccccc2)o1
EC50 [1]: 107 µM (active)

CCCC[C@@H]1C[C@H]1C(NC(=O)c1ccccc1)c1ccc(-c2ccccc2)cc1 (stereo partly drawn)
AC50 (Cytochrome P450 3A4): 7.94 µM (inconclusive) | AC50 (Cytochrome P450 2C9): 2 µM (inconclusive) | AC50 (Cytochrome P450 1A2): 0.501 µM (inconclusive)

COc1ccc(N2CCN(S(=O)(=O)c3cc4c(cc3C)N(C(C)=O)CCO4)CC2)cc1
EC50 [1]: > 195 µM (not active)

COc1cc(C=O)ccc1Oc1cnccn1
EC50 [2]: > 53 µM (inactive) | IC50 [3]: > 47.1 µM (inactive)

CCCCNC(=O)C(Sc1ccccc1)c1ccccc1 (stereo not drawn)
AC50 (Paired box protein Pax-8): 65.4 µM (active)

COc1ccc(CNc2cc([N+](=O)[O-])ccc2OC)cc1
EC50 [2]: > 53 µM (inactive) | IC50 [3]: 11 µM (active)

CN(C(=O)CCNC(=O)Cn1cnc2ccccc2c1=O)c1ccccc1F
EC50 [1]: > 195 µM (not active)

COc1ccc(Br)cc1CNC(=O)CCN1C(=O)COc2ccccc21
EC50 [1]: > 195 µM (not active)

NN=C(S)Nc1ccccc1Cl
EC50 [1]: > 195 µM (not active)

Cn1cc(-c2nc3cnc(Oc4ccccc4)nc3n(C3CC3)c2=O)c2ccccc21
AC50 (Cytochrome P450 3A4): 25.1 µM (inconclusive) | AC50 (Cytochrome P450 1A2): 5.01 µM (inconclusive)

Cc1nc2cnc(Nc3ccccc3)nc2n(CCc2ccccc2)c1=O
AC50 (Cytochrome P450 3A4): 10 µM (inconclusive) | AC50 (Cytochrome P450 1A2): 2.51 µM (inconclusive)

COC(=O)N1CCC2(CCN(C(=O)NC(C)C)CC2)CC1
AC50 (Cytochrome P450 2C9): 12.6 µM (inconclusive) | AC50 (Cytochrome P450 1A2): 20 µM (inconclusive)

COCCN1C(=O)C(O)=C(C(=O)c2cccc(OC)c2)C1c1ccc(C)o1 (stereo not drawn)
AC50 (Cytochrome P450 2C9): 31.6 µM (inconclusive) | AC50 (Cytochrome P450 1A2): 12.6 µM (inconclusive)

COc1cc(NC(S)=NCc2ccco2)cc(OC)c1
EC50 [2]: > 53 µM (inactive) | IC50 [3]: > 47.1 µM (inactive)

Cc1ccc(CNC(=O)/C=C/c2cccs2)cc1
EC50 (H4): 1.28 µM (active)

COC(=O)c1cc(S(=O)(=O)NCc2ccc(F)cc2)cn1C
EC50 [1]: > 195 µM (not active)

CC1CCc2[nH]c3ccc(C(=O)N(C)CC(=O)Nc4cccc(F)c4)cc3c2C1 (stereo not drawn)
EC50 [2]: > 53 µM (inactive) | IC50 [3]: > 47.1 µM (inactive)

O=C(Nc1cccc(O)c1)c1cc(-c2ccccc2Cl)on1
EC50 [1]: > 195 µM (not active)

COc1ccccc1C(=O)Nc1nnc(SCC(=O)NCC2CCCO2)s1 (stereo not drawn)
EC50 (H4): > 120 µM (not active) | EC50 [4]: > 150 µM (not active) | EC50 (Streptokinase A): > 150 µM (not active) | EC50 (Streptococcus): > 150 µM (not active)

COc1ccc(/C=C/C(=O)N(C)CC(=O)Nc2cccc(F)c2)cc1S(=O)(=O)N1CCCCC1
EC50 [2]: > 53 µM (inactive) | IC50 [3]: > 47.1 µM (inactive)

COc1cc(OC)cc(-c2sc3ccc(OC)cc3c2-c2ccc(O)cc2)c1
AC50 [5]: 2.46 µM (active)

CCCCCC(=O)N1CC2(CC(c3cccc(NC(=O)CC)c3)=NO2)C[C@H]1C(N)=O (stereo partly drawn)
EC50 [2]: > 53 µM (inactive) | IC50 [3]: > 47.1 µM (inactive)

Cc1cn(CC(=O)N2CCN(c3ccccn3)CC2)c(=O)[nH]c1=O
EC50 [2]: > 53 µM (inactive) | IC50 [3]: > 47.1 µM (inactive)

O=C(N/N=C/c1ccc(O)cc1)c1[nH]c2ccc(Br)cc2c1-c1ccccc1
EC50 [1]: 11.4 µM (active) | AC50 (Paired box protein Pax-8): 4.43 µM (active)

COc1cccc(-c2ccc3c(c2)[C@@H]2[C@@H](CCN2S(=O)(=O)c2ccccc2C)[C@H](CO)N3C)c1
AC50 (Paired box protein Pax-8): 10.4 µM (active)

CCCCCCCCCCS(=O)(=O)N/N=C/c1ccc([N+](=O)[O-])cc1
AC50 [5]: 8.29 µM (active)

CCOC(=O)n1ccn(C)c1=S [CARBIMAZOLE]
AC50 (Cytochrome P450 1A2): 12.6 µM (inconclusive)
